Test: xn = mol fraction of the nth substance listed, in the solute-free solvent

C#CC1(O)C=CC2C3CCC4=CC(=O)CCC4C3CCC21CC (centres undefined) + CO + O
solubility (g/100 g solution)
Settings | x2 = 0.05881 | x2 = 0.1233 | x2 = 0.1942 | x2 = 0.2727 | x2 = 0.3599 | x2 = 0.4576 | x2 = 0.5675 | x2 = 0.6923 | x2 = 0.835
283.15 K | 0.314 | 0.312 | 0.374 | 0.434 | 0.812 | 1.22 | 1.5 | 3.21 | 3.44
293.15 K | 0.435 | 0.437 | 0.512 | 0.594 | 1.2 | 1.81 | 2.45 | 4.24 | 5.12
298.15 K | 0.503 | 0.51 | 0.598 | 0.692 | 1.49 | 2.18 | 3.09 | 4.83 | 6.09
303.15 K | 0.578 | 0.592 | 0.696 | 0.804 | 1.8 | 2.59 | 3.85 | 5.45 | 7.24
308.15 K | 0.66 | 0.687 | 0.811 | 0.932 | 2.16 | 3.06 | 4.78 | 6.1 | 8.54
313.15 K | 0.746 | 0.791 | 0.943 | 1.08 | 2.55 | 3.6 | 5.87 | 6.79 | 9.97
318.15 K | 0.838 | 0.905 | 1.09 | 1.25 | 2.97 | 4.2 | 7.12 | 7.51 | 11.7
323.15 K | 0.934 | 1.03 | 1.27 | 1.44 | 3.41 | 4.87 | 8.61 | 8.26 | 13.5

FC(F)(F)c1cccnc1Cl + CN(C)C=O + CCCCO
solubility (g/100 g solution)
Settings | 263.15 K | 268.15 K | 273.15 K | 278.15 K | 283.15 K | 288.15 K | 293.15 K | 298.15 K | 303.15 K
x2 = 0.2885 | 31.3 | 36.7 | 42.1 | 48.9 | 55.3 | 61.7 | 68.1 | 74.6 | 81.4
x2 = 0.4479 | 37.6 | 43.2 | 48.7 | 55.3 | 61.5 | 67.7 | 73.7 | 79.9 | 85.9
x2 = 0.6438 | 43.1 | 48.9 | 54.2 | 61.1 | 67.5 | 73.7 | 79.7 | 85.6 | 90.9
x2 = 0.8281 | 50.8 | 56.5 | 61.9 | 68.2 | 74 | 79.6 | 85 | 90.4 | 95.1

c1ccc(-c2ccc(C(c3ccccc3)n3ccnc3)cc2)cc1 (centres undefined) + CC(O)CO + O
solubility (g/100 g solution)
Settings | 278.15 K | 283.15 K | 288.15 K | 293.15 K | 298.15 K | 303.15 K | 308.15 K | 313.15 K | 318.15 K
x2 = 0.02564 | 0.0702 | 0.0956 | 0.129 | 0.168 | 0.2 | 0.272 | 0.357 | 0.437 | 0.544
x2 = 0.0559 | 0.223 | 0.3 | 0.398 | 0.511 | 0.608 | 0.812 | 1.05 | 1.27 | 1.56
x2 = 0.09214 | 0.441 | 0.588 | 0.777 | 0.991 | 1.18 | 1.56 | 2 | 2.41 | 2.96
x2 = 0.1364 | 0.633 | 0.843 | 1.11 | 1.42 | 1.71 | 2.23 | 2.85 | 3.45 | 4.22
x2 = 0.1915 | 0.747 | 0.998 | 1.32 | 1.73 | 2.16 | 2.74 | 3.47 | 4.21 | 5.14
x2 = 0.2621 | 0.794 | 1.06 | 1.41 | 1.82 | 2.24 | 2.91 | 3.71 | 4.55 | 5.62
x2 = 0.3559 | 0.86 | 1.14 | 1.5 | 1.93 | 2.42 | 3.13 | 4 | 4.89 | 5.95
x2 = 0.4865 | 0.859 | 1.2 | 1.6 | 2.03 | 2.59 | 3.24 | 3.98 | 4.95 | 6.18
x2 = 0.6806 | 0.776 | 1.06 | 1.42 | 1.94 | 2.58 | 3.33 | 4.25 | 5.2 | 6.23

CC(S)C(=O)NCC(=O)O (centres undefined) + CCCCO + CC#N
solubility (g/100 g solution)
Settings | 273.15 K | 278.15 K | 283.15 K | 288.15 K | 293.15 K | 298.15 K | 303.15 K | 308.15 K | 313.15 K | 318.15 K
x2 = 0.1216 | 3.87 | 4.43 | 4.99 | 5.57 | 6.21 | 6.84 | 7.49 | 8.19 | 8.94 | 9.75
x2 = 0.2697 | 4.29 | 4.96 | 5.69 | 6.46 | 7.28 | 8.08 | 8.92 | 9.79 | 10.7 | 11.9
x2 = 0.4538 | 4.43 | 4.94 | 5.58 | 6.3 | 7.26 | 8.29 | 9.41 | 10.6 | 11.8 | 13
x2 = 0.689 | 4.42 | 5.29 | 6.26 | 7.32 | 8.38 | 9.51 | 10.7 | 12 | 13.3 | 14.7

From the CheMixHub drug solubility set
